Laboratory results taken from patent US20150051202A1, “TRIAZOLOPYRAZINE DERIVATIVES” (Merck Patent GmbH, priority 2012, published 2015).
Marks after values point to notes of the source that are not given here.

How the values were obtained:
GCN2 = GCN2 (Homo sapiens, UniProt Q9P2K8); experiment: GCN2 enzyme assay (TR-FRET Lanthascreen, GFP-eIF2alpha substrate); format: biochemical
Source text: GCN2: Assay Principle & Conditions
This assay can quantificate the activity of the serin kinase GCN2 (general control non-derepressible-2).
This kinase is involved in the stress metabolism of cells. It is activated upon starvation (amino acid depletion). Its natural substrate is eIF2a (eukaryotic initiation factor 2 alpha subunit), a translation factor, which gets activated (phosphorylated) by GCN2 in case of an amino acid bottleneck in the cells. This in turn leads to a halt of the protein synthesis. Inhibition of GCN2 results in stopping this mechanism: The cell can not stop protein production upon “starvation” stress.
The assay is run in two steps: the enzymatic reaction and the detection step. In the first step GCN2 is incubated with 10 μM ATP and 80 nM of the GFP-labelled substrate eIF2alpha at room temperature.
The enzymatic reaction is stopped by addition of EDTA. The amount of phosphorylated eIF2alpha is determined by TR-FRET (Lanthascreen): A complex is formed consisting of antibody and GFP labelled phospho-eIF2a, which allows a FRET upon exitation at 340 nm.
Final Concentrations in the Enzymatic Reaction • Hepes, pH 7.0 50 mM • MgCl2 10 mM • MnCl2 5 mM • BSA 0.1% • DMSO 1% • ATP 10 uM • DTT 2 mM • GFP-eIF2a 80 nM (substrate) • GCN2 30 nM (enzyme)

SYK = target: T1, SYK (Homo sapiens, UniProt P43405); experiment: SYK enzyme assay (Flash plate assay / Caliper mobility shift assay); format: biochemical; conditions: for SYK (enzyme assay) % at 3 μM: 100% corresponds to zero effect, −50% corresponds to IC50
T1 construct: purchased BPS Bioscience, CA, USA
Method: The kinase assay is performed either as 384-well Flashplate assay (for e.g. Topcount measurement) or as 384-well Image-Flashplate assay (for LEADseeker measurement).
2.5 nM SYK, 400 nM Biotin-Aha-Aha-[…]
and 10 μM ATP (spiked with 0.3 μCi 33P-ATP/well) are incubated in a total volume of 50 μl (60 mM Hepes, 10 mM MgCl2, 1.2 mM Dithiothreitol, 0.02% Brij35, 0.1% BSA, pH 7.5) with or without test compound for 1 hours at 30° C. The reaction is stopped with 25 μl 200 mM EDTA. After 30 Min at 30° C. the liquid is removed and each well washed thrice with 100 μl 0.9% sodium chloride solution. Non-specific reaction is determined in presence of 0.1 μM Staurosporine. Radioactivity is measured with Topcount (when using Flashplates) or with LEADseeker (when using Image-Flashplates) respectively. Results (e.g. IC50-values) are calculated with program tools provided by the IT-department (e.g. Symyx Assay Explorer, Genedata Screener).
Enzymatic Assays Using the Caliper LifeSciences Technology
The assays described here are performed on the Caliper Life Sciences LC3000 system This technology provides data on enzyme activity via measurement of the relative amounts of phosphorylated or unphosphorylated fluorescently labelled substrate peptide at the end of an enzymatic reaction.
These different states of peptide are resolved by applying a potential difference across the sample. The presence of the charged phosphate group on the product (as opposed to the substrate) causes a different peptide mobility between the two peptides. This is visualized by excitation of the fluorescent label on the substrate and product peptides and represented as peaks within the analysis software.
In order to measure inhibitor activity of kinase inhibitors on this technology, a TTP Mosquito liquid handling instrument is used to place 0.25 ul of the appropriate concentration of inhibitor in 100% DMSO (for a dose response curve calculation) into each well of a 384-well plate. To this reaction components are added to a final volume of 25 ul. The table below indicates the sequences and concentrations for the assays described in this report. Standard components are 1 mM DTT (Sigma, D0632), 1 mM MgCl2 (Sigma, M1028), 100 mM HEPES pH 7.5 (Calbiochem, 391338), 0.015% Brij-35 (Sigma, B4184).
The reaction is incubated for 90 min at 25 C, and then stopped by the addition of 70 ul of Stop buffer (100 mM HEPES pH 7.5, 0.015% Brij-35, 10 mM EDTA (Sigma, E7889)).
The plate is read on a Caliper LC 3000 in an Off-Chip mobility shift assay format, on a 12-sipper chip. Unphosphorylated substrate and phosphorylated product peptide resolve as separate peaks allowing direct measurement of percentage of conversion of substrate to product. The percent conversion can be plotted against concentration of inhibitor to produce a sigmoidal dose response curve, from which an IC50 can be calculated using GeneData Condoseo or a similar product.

Sequence of GCN2 (Q9P2K8 whole entry): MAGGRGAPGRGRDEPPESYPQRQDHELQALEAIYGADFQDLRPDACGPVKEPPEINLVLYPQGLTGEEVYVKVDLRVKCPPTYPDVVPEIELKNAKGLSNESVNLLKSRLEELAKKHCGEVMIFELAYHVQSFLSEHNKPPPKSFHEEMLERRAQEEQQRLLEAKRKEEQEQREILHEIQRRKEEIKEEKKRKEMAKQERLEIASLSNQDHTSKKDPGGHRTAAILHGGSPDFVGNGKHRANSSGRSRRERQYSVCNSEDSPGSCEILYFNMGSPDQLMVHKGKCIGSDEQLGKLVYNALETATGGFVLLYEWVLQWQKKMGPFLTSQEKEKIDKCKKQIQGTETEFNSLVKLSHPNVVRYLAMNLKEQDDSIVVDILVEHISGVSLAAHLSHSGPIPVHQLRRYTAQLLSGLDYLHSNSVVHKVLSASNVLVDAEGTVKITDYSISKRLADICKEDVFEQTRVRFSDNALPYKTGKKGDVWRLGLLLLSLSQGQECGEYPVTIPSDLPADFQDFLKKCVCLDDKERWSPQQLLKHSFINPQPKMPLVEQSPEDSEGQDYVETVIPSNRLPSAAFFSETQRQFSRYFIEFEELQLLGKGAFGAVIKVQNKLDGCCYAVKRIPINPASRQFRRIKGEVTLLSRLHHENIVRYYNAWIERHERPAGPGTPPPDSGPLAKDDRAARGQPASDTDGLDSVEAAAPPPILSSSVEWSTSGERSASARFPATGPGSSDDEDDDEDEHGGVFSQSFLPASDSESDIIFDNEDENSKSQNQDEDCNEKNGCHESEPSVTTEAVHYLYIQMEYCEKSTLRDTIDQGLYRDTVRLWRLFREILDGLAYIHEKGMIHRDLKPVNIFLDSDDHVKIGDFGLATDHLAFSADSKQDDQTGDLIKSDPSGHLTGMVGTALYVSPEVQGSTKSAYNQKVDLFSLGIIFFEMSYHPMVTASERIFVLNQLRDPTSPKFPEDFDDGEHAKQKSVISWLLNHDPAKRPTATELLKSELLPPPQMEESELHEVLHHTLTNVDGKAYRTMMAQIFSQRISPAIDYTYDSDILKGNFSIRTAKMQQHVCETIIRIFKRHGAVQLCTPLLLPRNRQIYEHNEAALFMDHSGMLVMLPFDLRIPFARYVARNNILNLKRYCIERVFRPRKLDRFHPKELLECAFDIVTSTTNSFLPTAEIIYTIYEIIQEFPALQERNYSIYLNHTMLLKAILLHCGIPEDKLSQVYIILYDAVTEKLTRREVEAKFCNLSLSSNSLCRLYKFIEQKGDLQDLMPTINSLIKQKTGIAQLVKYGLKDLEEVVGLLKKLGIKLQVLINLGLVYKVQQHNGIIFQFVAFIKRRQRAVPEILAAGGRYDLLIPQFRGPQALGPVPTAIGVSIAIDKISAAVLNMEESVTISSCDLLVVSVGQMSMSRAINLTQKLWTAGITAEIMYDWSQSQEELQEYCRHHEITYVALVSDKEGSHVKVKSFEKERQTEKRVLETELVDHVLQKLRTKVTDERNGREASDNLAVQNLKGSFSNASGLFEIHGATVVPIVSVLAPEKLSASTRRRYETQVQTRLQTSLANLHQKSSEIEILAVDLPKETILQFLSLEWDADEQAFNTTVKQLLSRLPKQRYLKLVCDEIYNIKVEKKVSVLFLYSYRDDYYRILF

SMILES | IC50 (GCN2) [µM] | SYK (enzyme assay) % at 3 μM (SYK) | IC50 (SYK) [µM]
Cn1ncc2cc(-c3cncc4nc(Nc5ccc(S(C)(=O)=O)cc5)nn34)ccc21 [Compound A1, (4-methanesulfonyl-phenyl)-[5-(1-methyl-1H-indazol-5-yl)-[1,2,4]triazolo[1,5-a]pyrazin-2-yl]-amine] | 5 to 10 | −18@3 * % | 
COc1cccc(Nc2nc3cncc(-c4ccc5c(cnn5C)c4)n3n2)c1 [Compound A2] | < 1 | −29@3% | 
Cn1ncc2cc(-c3cncc4nc(Nc5cccnc5)nn34)ccc21 [Compound A3, [5-(1-methyl-1H-indazol-5-yl)-[1,2,4]triazolo[1,5-a]pyrazin-2-yl]-pyridin-3-yl-amine] | 1 to 5 | −9@3% | 
Cc1cc(Nc2nc3cncc(-c4ccc5c(cnn5C)c4)n3n2)ccc1N1CCN(C)CC1 [Compound A4, [5-(1-methyl-1H-indazol-5-yl)-[1,2,4]triazolo[1,5-a]pyrazin-2-yl]-[3-methyl-4-(4-methyl-piperazin-1-yl)-phenyl]-amine] | < 1 |  | < 1
Cn1ncc2cc(-c3cncc4nc(Nc5ccc6c(c5)NC(=O)C6(C)C)nn34)ccc21 [Compound A5, 3,3-dimethyl-6-[5-(1-methyl-1H-indazol-5-yl)-[1,2,4]triazolo[1,5-a]pyrazin-2-ylamino]-1,3-dihydro-indol-2-one] | 1 to 5 |  | < 1
CN(C)Cc1nc2cc(Nc3nc4cncc(-c5ccc6c(cnn6C)c5)n4n3)ccc2[nH]1 [Compound A6, (2-dimethylaminomethyl-1H-benzoimidazol-5-yl)-[5-(1-methyl-1H-indazol-5-yl)-[1,2,4]triazolo[1,5-a]pyrazin-2-yl]-amine] | < 1 |  | 1 to 5
NS(=O)(=O)c1cccc(Nc2nc3cncc(-c4cnc5ccccc5c4)n3n2)c1 [Compound A7, 3-(5-quinolin-3-yl-[1,2,4]triazolo[1,5-a]pyrazin-2-ylamino)-benzenesulfonamide] | 5 to 10 |  | 1 to 5
Cc1cc(Nc2nc3cncc(-c4cnc5ccccc5c4)n3n2)ccc1N1CCN(C)CC1 [Compound A8, [3-methyl-4-(4-methyl-piperazin-1-yl)-phenyl]-(5-quinolin-3-yl-[1,2,4]triazolo[1,5-a]pyrazin-2-yl)-amine] | 1 to 5 |  | 1 to 5
CC1(C)C(=O)Nc2cc(Nc3nc4cncc(-c5cnc6ccccc6c5)n4n3)ccc21 [Compound A9, 3,3-dimethyl-6-(5-quinolin-3-yl-[1,2,4]triazolo[1,5-a]pyrazin-2-ylamino)-1,3-dihydro-indol-2-one] | 1 to 5 |  | 1 to 5
CN(C)Cc1nc2cc(Nc3nc4cncc(-c5cnc6ccccc6c5)n4n3)ccc2[nH]1 [Compound A10, (2-dimethylaminomethyl-1H-benzoimidazol-5-yl)-(5-quinolin-3-yl-[1,2,4]triazolo[1,5-a]pyrazin-2-yl)-amine] | < 1 |  | 1 to 5
Cn1cc(-c2cncc3nc(Nc4ccc(S(C)(=O)=O)cc4)nn23)cn1 [Compound A11, (4-methanesulfonyl-phenyl)-[5-(1-methyl-1H-pyrazol-4-yl)-[1,2,4]triazolo[1,5-a]pyrazin-2-yl]-amine] | 1 to 5 |  | 1 to 5
Cn1cc(-c2cncc3nc(Nc4cccnc4)nn23)cn1 [Compound A12, [5-(1-methyl-1H-pyrazol-4-yl)-[1,2,4]triazolo[1,5-a]pyrazin-2-yl]-pyridin-3-yl-amine] | < 1 |  | 
Fc1cccc(Nc2nc3cnc(Cl)cn3n2)c1 [Compound A19] | 1 to 5 |  | 
Fc1ccc(Nc2nc3cnc(Cl)cn3n2)cc1 [Compound A21] | 1 to 5 |  | 
COc1cccc(Nc2nc3cnc(C#N)cn3n2)c1 [Compound A23] | 1 to 5 |  | 
COc1cccc(Nc2nc3cnc(C)cn3n2)c1 [Compound A24, (3-methoxy-phenyl)-(6-methyl-[1,2,4]triazolo[1,5-a]pyrazin-2-yl)-amine] |  | 1@3% | 
Fc1ccc(Nc2cn3nc(Nc4cccnc4)nc3cn2)cc1 [Compound A29, N6-(4-fluoro-phenyl)-N2-pyridin-3-yl-[1,2,4]triazolo[1,5-a]pyrazine-2,6-diamine] | 1 to 5 |  | 
c1cnc2ccc(-c3cncc4nc(Nc5ccc(N6CCOCC6)cc5)nn34)cc2c1 [Compound A33, (4-morpholin-4-yl-phenyl)-(5-quinolin-6-yl-[1,2,4]triazolo[1,5-a]pyrazin-2-yl)-amine] | 1 to 5 |  | 
Cn1ncc2cc(-c3cncc4nc(Nc5ccc6c(c5)CC(=O)N6)nn34)ccc21 [Compound A38, 5-[5-(1-methyl-1H-indazol-5-yl)-[1,2,4]triazolo[1,5-a]pyrazin-2-ylamino]-1,3-dihydro-indol-2-one] | < 1 |  | 
Cn1ncc2cc(-c3cncc4nc(Nc5cccc(S(N)(=O)=O)c5)nn34)ccc21 [Compound A39, 3-[5-(1-methyl-1H-indazol-5-yl)-[1,2,4]triazolo[1,5-a]pyrazin-2-ylamino]-benzenesulfonamide] | < 1 |  | 
Cc1cc(Nc2nc3cncc(-c4ccc(C(C)(C)C#N)cc4)n3n2)ccc1N1CCN(C)CC1 [Compound A40, 2-methyl-2-(4-{2-[3-methyl-4-(4-methyl-piperazin-1-yl)-phenylamino]-[1,2,4]triazolo[1,5-a]pyrazin-5-yl}-phenyl)-propionitrile] | < 1 |  | 
Cn1cc(-c2cncc3nc(Nc4ccc5c(c4)CC(=O)N5)nn23)cn1 [Compound A41, 5-[5-(1-methyl-1H-pyrazol-4-yl)-[1,2,4]triazolo[1,5-a]pyrazin-2-ylamino]-1,3-dihydro-indol-2-one] | < 1 |  | 
Cc1cc(Nc2nc3cncc(-c4cnn(C)c4)n3n2)ccc1N1CCN(C)CC1 [Compound A42, 5-(1-methyl-1H-pyrazol-4-yl)-N-(3-methyl-4-(4-methylpiperazin-1-yl)phenyl)-[1,2,4]triazolo[1,5-a]pyrazin-2-amine] | < 1 |  | 
Cc1cc(Nc2nc3cncc(-c4cccc(NS(C)(=O)=O)c4)n3n2)ccc1N1CCN(C)CC1 [Compound A43, N-(3-(2-((3-methyl-4-(4-methylpiperazin-1-yl)phenyl)amino)-[1,2,4]triazolo[1,5-a]pyrazin-5-yl)phenyl)methanesulfonamide] | < 1 |  | 
Cc1cc(Nc2nc3cncc(-c4cccc(C(N)=O)c4)n3n2)ccc1N1CCN(C)CC1 [Compound A54, 3-{2-[3-methyl-4-(4-methyl-piperazin-1-yl)-phenylamino]-[1,2,4]triazolo[1,5-a]pyrazin-5-yl}-benzamide] | 1 to 5 |  | 
CN1CCN(c2ccc(Nc3nc4cncc(-c5cnn(C)c5)n4n3)cn2)CC1 [Compound A90, [6-(4-methyl-piperazin-1-yl)-pyridin-3-yl]-[5-(1-methyl-1H-pyrazol-4-yl)-[1,2,4]triazolo[1,5-a]pyrazin-2-yl]-amine] | < 1 |  | 
CNS(=O)(=O)c1cccc(-c2cncc3nc(Nc4ccc(N5CCN(C)CC5)c(OC)c4)nn23)c1 [Compound A96, 3-{2-[3-methoxy-4-(4-methyl-piperazin-1-yl)-phenylamino]-[1,2,4]triazolo[1,5-a]pyrazin-5-yl}-N-methyl-benzenesulfonamide] | 1 to 5 |  | 
